Key:
Androgen receptor [1] = biological target: T1, Androgen receptor (Homo sapiens, UniProt P10275); experiment: Binding affinity against hAR androgen receptor expressed in COS cells; format: cell-based
T1 sequence (P10275 whole entry): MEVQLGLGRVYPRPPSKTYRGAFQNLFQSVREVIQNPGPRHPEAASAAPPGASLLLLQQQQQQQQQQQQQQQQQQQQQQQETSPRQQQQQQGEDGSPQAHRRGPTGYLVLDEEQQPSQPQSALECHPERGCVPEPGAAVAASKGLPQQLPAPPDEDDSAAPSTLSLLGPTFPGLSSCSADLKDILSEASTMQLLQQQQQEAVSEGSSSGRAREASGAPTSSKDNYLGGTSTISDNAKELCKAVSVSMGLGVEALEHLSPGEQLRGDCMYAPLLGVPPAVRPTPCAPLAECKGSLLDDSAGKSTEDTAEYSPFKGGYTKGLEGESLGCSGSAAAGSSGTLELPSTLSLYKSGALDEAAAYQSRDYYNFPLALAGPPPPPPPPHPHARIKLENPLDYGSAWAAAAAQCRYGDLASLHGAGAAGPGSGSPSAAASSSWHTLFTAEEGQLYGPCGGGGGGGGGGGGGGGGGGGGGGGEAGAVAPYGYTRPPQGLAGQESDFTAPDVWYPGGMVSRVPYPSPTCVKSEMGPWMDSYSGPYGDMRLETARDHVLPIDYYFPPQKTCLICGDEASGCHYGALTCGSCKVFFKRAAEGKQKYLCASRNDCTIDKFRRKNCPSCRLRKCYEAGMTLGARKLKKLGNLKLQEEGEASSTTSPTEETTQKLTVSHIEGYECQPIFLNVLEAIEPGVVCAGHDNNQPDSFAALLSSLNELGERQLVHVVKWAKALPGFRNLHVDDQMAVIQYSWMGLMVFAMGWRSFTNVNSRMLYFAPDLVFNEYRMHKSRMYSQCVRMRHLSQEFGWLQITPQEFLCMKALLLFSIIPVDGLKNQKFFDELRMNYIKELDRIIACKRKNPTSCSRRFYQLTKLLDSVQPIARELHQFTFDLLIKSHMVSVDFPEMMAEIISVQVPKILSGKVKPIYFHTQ

Androgen receptor [2] = biological target: T1, Androgen receptor; settings: cv-1
Description: Agonistic activity against human androgen receptor (hAR) in co-transfected CV-1 cell

Androgen receptor [3] = biological target: T1, Androgen receptor
Androgen receptor [4] = biological target: T1, Androgen receptor; experiment: Binding affinity against Androgen receptor transfected into COS cells
Androgen receptor [5] = biological target: T1, Androgen receptor; experiment: Agonistic activity (EC50) against human androgen receptor (hAR) in co-transfected CV-1 cell; format: functional, cell-based
Androgen receptor [6] = biological target: T1, Androgen receptor; experiment: Antagonistic activity (IC50) against human androgen receptor (hAR) in co-transfected CV-1 cell; format: functional, cell-based
Estrogen receptor [7] = biological target: T2, Estrogen receptor (Homo sapiens, UniProt Q92731+P03372); experiment: (§1) Antagonistic activity against Estrogen receptor in co-transfected CV-1 cell; format: functional, cell-based
[8] = biological target: T3, Mineralocorticoid receptor (Homo sapiens) (UniProt P08235); experiment: (§2) Antagonistic activity against hMR in co-transfected CV-1 cell; format: functional, cell-based
T3 sequence (whole entry): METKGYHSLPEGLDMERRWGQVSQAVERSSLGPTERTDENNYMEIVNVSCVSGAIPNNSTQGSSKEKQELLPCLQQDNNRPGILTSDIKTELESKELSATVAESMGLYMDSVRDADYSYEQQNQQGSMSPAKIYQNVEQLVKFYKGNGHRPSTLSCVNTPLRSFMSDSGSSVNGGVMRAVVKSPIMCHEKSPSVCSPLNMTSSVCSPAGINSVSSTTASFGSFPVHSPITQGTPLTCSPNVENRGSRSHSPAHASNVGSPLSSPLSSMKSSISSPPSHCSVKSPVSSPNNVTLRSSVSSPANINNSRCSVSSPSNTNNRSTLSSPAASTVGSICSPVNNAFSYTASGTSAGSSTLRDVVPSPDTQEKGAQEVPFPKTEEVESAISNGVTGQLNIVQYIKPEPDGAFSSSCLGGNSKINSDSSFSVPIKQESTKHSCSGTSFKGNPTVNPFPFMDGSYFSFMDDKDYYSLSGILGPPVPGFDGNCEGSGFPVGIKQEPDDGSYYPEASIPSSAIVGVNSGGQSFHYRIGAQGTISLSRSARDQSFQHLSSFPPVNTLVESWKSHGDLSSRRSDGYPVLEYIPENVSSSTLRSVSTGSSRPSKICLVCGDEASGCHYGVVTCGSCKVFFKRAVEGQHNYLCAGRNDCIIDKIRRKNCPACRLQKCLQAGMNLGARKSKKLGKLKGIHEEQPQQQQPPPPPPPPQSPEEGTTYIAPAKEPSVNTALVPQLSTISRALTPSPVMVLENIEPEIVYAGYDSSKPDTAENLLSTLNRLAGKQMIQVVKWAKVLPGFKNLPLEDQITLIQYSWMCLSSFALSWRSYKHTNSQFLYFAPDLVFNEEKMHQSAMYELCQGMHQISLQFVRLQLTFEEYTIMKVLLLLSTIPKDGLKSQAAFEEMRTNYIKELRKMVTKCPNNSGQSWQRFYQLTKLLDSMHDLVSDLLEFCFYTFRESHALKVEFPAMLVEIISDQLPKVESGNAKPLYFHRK

[9] = biological target: T4, Glucocorticoid receptor (Homo sapiens) (UniProt P04150); experiment: (§3) Antagonistic activity against Glucocorticoid receptor in co-transfected CV-1 cell; format: functional, cell-based
T4 sequence (whole entry): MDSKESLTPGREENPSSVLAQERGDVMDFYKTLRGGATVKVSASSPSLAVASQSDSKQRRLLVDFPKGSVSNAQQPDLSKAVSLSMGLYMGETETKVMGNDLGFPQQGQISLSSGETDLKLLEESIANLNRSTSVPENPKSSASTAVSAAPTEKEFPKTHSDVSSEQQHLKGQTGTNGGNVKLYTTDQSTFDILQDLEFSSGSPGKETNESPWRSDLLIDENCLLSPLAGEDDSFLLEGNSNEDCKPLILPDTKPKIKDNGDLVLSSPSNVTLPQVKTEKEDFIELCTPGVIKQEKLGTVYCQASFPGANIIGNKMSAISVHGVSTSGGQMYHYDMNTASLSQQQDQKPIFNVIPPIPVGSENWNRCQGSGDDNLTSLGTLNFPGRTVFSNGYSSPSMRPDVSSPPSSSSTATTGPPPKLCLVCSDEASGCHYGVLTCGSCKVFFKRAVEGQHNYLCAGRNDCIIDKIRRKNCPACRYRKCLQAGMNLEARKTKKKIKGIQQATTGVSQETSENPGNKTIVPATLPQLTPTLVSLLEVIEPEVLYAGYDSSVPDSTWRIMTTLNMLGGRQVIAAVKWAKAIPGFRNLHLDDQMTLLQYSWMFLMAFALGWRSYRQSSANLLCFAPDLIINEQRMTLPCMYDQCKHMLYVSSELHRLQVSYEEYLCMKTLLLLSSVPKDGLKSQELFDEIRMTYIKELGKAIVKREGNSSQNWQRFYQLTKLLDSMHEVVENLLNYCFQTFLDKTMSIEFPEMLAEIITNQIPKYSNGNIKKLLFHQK

[10] = biological target: T5, Progesterone receptor (Homo sapiens) (UniProt P06401); experiment: (§4) Antagonistic activity against hPR in co-transfected CV-1 cell; format: functional, cell-based
T5 sequence (whole entry): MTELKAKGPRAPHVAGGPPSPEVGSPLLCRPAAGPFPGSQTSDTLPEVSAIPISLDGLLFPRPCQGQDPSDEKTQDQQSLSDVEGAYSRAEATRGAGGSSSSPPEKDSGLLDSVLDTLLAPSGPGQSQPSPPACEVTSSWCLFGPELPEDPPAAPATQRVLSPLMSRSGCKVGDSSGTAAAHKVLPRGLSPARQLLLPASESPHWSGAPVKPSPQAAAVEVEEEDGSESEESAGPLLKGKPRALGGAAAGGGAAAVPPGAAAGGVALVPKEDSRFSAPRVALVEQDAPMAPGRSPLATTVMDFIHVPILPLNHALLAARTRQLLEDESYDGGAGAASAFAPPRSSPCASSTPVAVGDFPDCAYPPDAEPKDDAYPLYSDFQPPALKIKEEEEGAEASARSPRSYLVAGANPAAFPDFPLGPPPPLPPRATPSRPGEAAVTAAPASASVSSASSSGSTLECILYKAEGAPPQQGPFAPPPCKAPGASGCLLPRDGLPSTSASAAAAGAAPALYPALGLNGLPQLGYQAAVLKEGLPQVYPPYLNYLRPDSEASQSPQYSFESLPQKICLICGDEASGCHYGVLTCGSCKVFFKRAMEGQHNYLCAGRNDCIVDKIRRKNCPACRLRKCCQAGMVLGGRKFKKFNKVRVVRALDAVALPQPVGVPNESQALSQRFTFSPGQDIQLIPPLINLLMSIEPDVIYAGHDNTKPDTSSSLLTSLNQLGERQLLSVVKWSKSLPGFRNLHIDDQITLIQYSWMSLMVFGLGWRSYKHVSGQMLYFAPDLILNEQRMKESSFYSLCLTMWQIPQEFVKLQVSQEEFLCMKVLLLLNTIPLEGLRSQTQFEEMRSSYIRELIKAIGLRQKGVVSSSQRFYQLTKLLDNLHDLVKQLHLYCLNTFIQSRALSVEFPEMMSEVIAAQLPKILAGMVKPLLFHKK

[11] = biological target: T6, Mineralocorticoid receptor (Homo sapiens, UniProt P08235); experiment: as §2; format: functional, cell-based
T6 sequence (P08235 whole entry): T3 sequence (whole entry)

Progesterone receptor = biological target: T7, Progesterone receptor (Homo sapiens, UniProt P06401); experiment: as §4; format: functional, cell-based
T7 sequence (P06401 whole entry): T5 sequence (whole entry)

Estrogen receptor [12] = biological target: T2, Estrogen receptor; experiment: as §1; format: functional, cell-based; remark: listed apart in the source
Glucocorticoid receptor = biological target: T8, Glucocorticoid receptor (Homo sapiens, UniProt P04150); experiment: as §3; format: functional, cell-based
T8 sequence (P04150 whole entry): T4 sequence (whole entry)

Row | SMILES | IC50 (Androgen receptor [3]) [nM] | Ki (Androgen receptor [4]) [nM] | EC50 (Androgen receptor [5]) [nM] | IC50 (Androgen receptor [6]) | other results
1 | CN1CCc2cc3c(C(F)(F)F)cc(=O)n(C)c3cc21 | 197 |  |  |  | Ki (Androgen receptor [1]): 167 nM; EC50 (Androgen receptor [2]): Not Active
2 | C[C@@H]1Cc2cc3c(C(F)(F)F)cc(=O)n(C)c3cc2N1 |  | 9 | 20 | Not Active | 
3 | C[C@@H]1CNc2cc3nc(O)cc(C(F)(F)F)c3cc21 |  | 17 | 62 | Not Active | 
4 | C[C@H]1Nc2cc3[nH]c(=O)cc(C(F)(F)F)c3cc2C1(C)C | 48 | 21 | 99 |  | 
5 | CN1c2cc3c(cc2[C@@]2(C)CCCC[C@@H]12)c(C(F)(F)F)cc(=O)n3C | 53 | 97 |  |  | EC50 (Androgen receptor [2]): Not Active
6 | C[C@H]1CC[C@H]2Nc3cc4nc(O)cc(C(F)(F)F)c4cc3[C@H]2C1 |  | 23 | 64 | Not Active | 
7 | C[C@H]1N(C)c2cc3c(cc2C1(C)C)c(C(F)(F)F)cc(=O)n3C | 56 | 33 |  |  | EC50 (Androgen receptor [2]): Not Active
8 | Cn1c(=O)cc(C(F)(F)F)c2cc3c(cc21)N[C@@H]1CCCC[C@]31C |  | 9 | 33 | Not Active | 
9 | C[C@H]1Nc2cc3c(cc2C1(C)C)c(C(F)(F)F)cc(=O)n3C | 22 | 9 | 380 |  | 
10 | CC1(C)CNc2cc3nc(O)cc(C(F)(F)F)c3cc21 | 10 | 28 | 42 |  | 
11 | C[C@@H]1c2cc3c(C(F)(F)F)cc(O)nc3cc2N[C@@H]1C |  | 6 | 5 | Not Active | Efficacy (Estrogen receptor [7]): < 20%; Efficacy [8]: 29%; Efficacy [9]: 35%; Efficacy [10]: 88%; IC50 [11]: 2000 nM; IC50 (Progesterone receptor): 1900 nM; IC50 (Estrogen receptor [12]): > 10 µM; IC50 (Glucocorticoid receptor): 2.5 µM
12 | Oc1cc(C(F)(F)F)c2cc3c(cc2n1)N[C@@H]1CCCC[C@H]31 |  | 5 | 5 | Not Active | Efficacy (Estrogen receptor [7]): < 20%; Efficacy [8]: 54%; Efficacy [9]: 33%; Efficacy [10]: 91%; IC50 [11]: 2000 nM; IC50 (Progesterone receptor): 170 nM; IC50 (Estrogen receptor [12]): > 10 µM; IC50 (Glucocorticoid receptor): 5.8 µM
13 | CCn1c(=O)cc(C(F)(F)F)c2cc3c(cc21)N[C@@H]1CCCC[C@H]31 | 230 | 194 |  |  | EC50 (Androgen receptor [2]): Not Active
14 | Cn1c(=O)cc(C(F)(F)F)c2cc3c(cc21)N[C@@H]1CCCC[C@H]31 |  | 4 | 10 | Not Active | Efficacy (Estrogen receptor [7]): < 20%; Efficacy [8]: 58%; Efficacy [9]: 39%; Efficacy [10]: 99%; IC50 [11]: 2900 nM; IC50 (Progesterone receptor): 150 nM; IC50 (Estrogen receptor [12]): > 10 µM; IC50 (Glucocorticoid receptor): 3 µM
15 | C[C@@H]1c2cc3c(C(F)(F)F)cc(=O)n(C)c3cc2N[C@@H]1C | 9180 | 10 | 15 |  | 
16 | CCCN1c2cc3c(cc2[C@H]2CCCC[C@H]21)c(C(F)(F)F)cc(=O)n3C | 27 | 63 | 324 |  | 
17 | C[C@]12CCCC[C@H]1Nc1cc3nc(O)cc(C(F)(F)F)c3cc12 |  |  |  | Not Active | Efficacy (Estrogen receptor [7]): < 20%; Efficacy [8]: 43%; Efficacy [9]: 43%; Efficacy [10]: 96%; IC50 (Estrogen receptor [12]): > 10 µM
18 | C[C@H]1CC[C@@H]2[C@H](C1)c1cc3c(C(F)(F)F)cc(=O)n(C)c3cc1N2C | 54 | 78 |  |  | EC50 (Androgen receptor [2]): Not Active
19 | C[C@@H]1Cc2cc3c(C(F)(F)F)cc(O)nc3cc2N1 | 7 | 10 | 168 |  | Efficacy (Estrogen receptor [7]): < 20%; Efficacy [8]: < 20%; Efficacy [9]: < 20%; Efficacy [10]: 89%; IC50 [11]: > 10000 nM; IC50 (Progesterone receptor): 750 nM; IC50 (Estrogen receptor [12]): > 10 µM; IC50 (Glucocorticoid receptor): > 10 µM
20 | C[C@]12CCCC[C@H]1Nc1cc3[nH]c(=O)cc(C(F)(F)F)c3cc12 |  | 21 | 25 |  | IC50 [11]: 1900 nM; IC50 (Progesterone receptor): 730 nM; IC50 (Glucocorticoid receptor): 2.1 µM

Reference: ChEMBL document CHEMBL1130772, “New nonsteroidal androgen receptor modulators based on 4-(trifluoromethyl)-2(1H)-pyrrolidino[3,2-g] quinolinone” (Bioorg Med Chem Lett, 1998)
